Calls of active or inactive are those of the source. No cut-off for these calls is given here.
How the values were obtained:
[1] = tested on: NB-4; assay: Antiproliferative activity against human NB4 cells incubated for 3 days by CCK8 assay; assay type: functional, cell-based; conditions: NB-4, 72 h
[2] = tested on: MOLM-13; assay: Antiproliferative activity against human MOLM-13 cells incubated for 3 days by CCK8 assay; assay type: functional, cell-based; conditions: MOLM-13, 72 h
[3] = tested on: HL-60; assay: Antiproliferative activity against human HL-60 cells incubated for 3 days by CCK8 assay; assay type: functional, cell-based; conditions: HL-60, 72 h
[4] = tested on: OCI-AML-3; assay: Antiproliferative activity against human OCI-AML-3 cells incubated for 3 days by CCK8 assay; assay type: functional, cell-based; conditions: Homo sapiens, OCI-AML-3, 72 h
[5] = tested on: THP-1; assay: Antiproliferative activity against human THP-1 cells incubated for 3 days by CCK8 assay; assay type: functional, cell-based; conditions: THP-1, 72 h
[6] = tested on: Raji; assay: Antiproliferative activity against human Raji cells incubated for 3 days by CCK8 assay; assay type: functional, cell-based; conditions: 72 h
[7] = tested on: KARPAS-299; assay: Antiproliferative activity against human KARPAS-299 cells incubated for 3 days by CCK8 assay; assay type: functional, cell-based; conditions: Homo sapiens, KARPAS-299, 72 h
[8] = tested on: MOLM-13; assay: Antiproliferative activity against human MOLM-13 cells assessed as cell viability at 0.1 uM incubated for 3 days by CCK8 assay relative to control; assay type: functional; conditions: MOLM-13, 72 h, time 3 day, read-out: Activity
[9] = tested on: SU-DHL-1; assay: Antiproliferative activity against human SU-DHL-1 cells incubated for 3 days by CCK8 assay; assay type: functional, cell-based; conditions: SU-DHL-1, 72 h
[10] = tested on: Daudi; assay: Antiproliferative activity against human Daudi cells incubated for 3 days by CCK8 assay; assay type: functional, cell-based; conditions: 72 h
[11] = molecular target: T1, Protein cereblon/Bromodomain-containing protein 4 (Homo sapiens, UniProt O60885+Q96SW2); assay: PROTAC activity at CRBN/BRD4 in human MOLM-13 cells assessed as BRD4 degradation at 1 uM incubated for 24 hrs by Western blot analysis; assay type: cell-based
T1 sequence (Q96SW2 whole entry, looked up, other chains not shown): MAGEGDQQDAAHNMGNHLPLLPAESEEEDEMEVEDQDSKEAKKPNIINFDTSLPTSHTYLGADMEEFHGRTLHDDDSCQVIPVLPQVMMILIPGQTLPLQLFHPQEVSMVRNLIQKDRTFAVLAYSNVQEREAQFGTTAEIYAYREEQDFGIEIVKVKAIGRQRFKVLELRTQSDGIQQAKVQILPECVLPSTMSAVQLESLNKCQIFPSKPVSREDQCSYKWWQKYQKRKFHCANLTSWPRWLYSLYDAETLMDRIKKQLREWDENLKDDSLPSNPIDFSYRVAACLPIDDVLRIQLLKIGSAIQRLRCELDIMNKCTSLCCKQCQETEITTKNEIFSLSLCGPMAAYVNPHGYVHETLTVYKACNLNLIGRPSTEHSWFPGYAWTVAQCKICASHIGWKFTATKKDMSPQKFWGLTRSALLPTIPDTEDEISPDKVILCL

[12] = molecular target: T2, Protein cereblon/Eukaryotic peptide chain release factor GTP-binding subunit ERF3A (Homo sapiens, UniProt Q96SW2+P15170); assay: PROTAC activity at CRBN/GSPT1 in human MOLM-13 cells assessed as GSPT1 degradation at 100 nM incubated for 6 hrs by Western blot analysis; assay type: cell-based
Target sequence in this assay (P15170 whole entry, looked up): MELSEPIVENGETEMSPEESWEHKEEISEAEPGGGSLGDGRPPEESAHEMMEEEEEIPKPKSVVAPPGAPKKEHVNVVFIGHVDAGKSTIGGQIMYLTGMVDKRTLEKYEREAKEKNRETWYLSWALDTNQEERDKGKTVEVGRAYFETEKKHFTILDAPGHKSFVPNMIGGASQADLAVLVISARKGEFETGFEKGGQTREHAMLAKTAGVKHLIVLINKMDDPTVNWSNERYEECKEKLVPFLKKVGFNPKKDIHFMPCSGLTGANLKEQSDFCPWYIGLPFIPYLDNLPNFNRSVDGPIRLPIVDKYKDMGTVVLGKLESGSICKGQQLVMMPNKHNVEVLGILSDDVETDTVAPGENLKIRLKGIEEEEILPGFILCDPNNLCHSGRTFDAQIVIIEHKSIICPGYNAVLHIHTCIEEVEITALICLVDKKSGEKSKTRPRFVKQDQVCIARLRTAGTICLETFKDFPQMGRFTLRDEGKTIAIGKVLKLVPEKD
Target sequence in this assay (Q96SW2 whole entry, looked up): as the sequence (Q96SW2 whole entry, looked up, other chains not shown) above

[13] = molecular target: T1, Protein cereblon/Bromodomain-containing protein 4; assay: PROTAC activity at CRBN/BRD4 in human MOLM-13 cells assessed as BRD4 degradation at 100 nM incubated for 6 hrs by Western blot analysis; assay type: cell-based
[14] = molecular target: T1, Protein cereblon/Bromodomain-containing protein 4; assay: PROTAC activity at CRBN/BRD4 in human MOLM-13 cells assessed as BRD4 degradation incubated for 24 hrs by Western blot analysis; assay type: cell-based
[15] = molecular target: T2, Protein cereblon/Eukaryotic peptide chain release factor GTP-binding subunit ERF3A; assay: PROTAC activity at CRBN/GSPT1 in human MOLM-13 cells assessed as GSPT1 degradation incubated for 24 hrs by Western blot analysis; assay type: cell-based
Target sequence in this assay (Q96SW2 whole entry): as the sequence (Q96SW2 whole entry, looked up, other chains not shown) above
Target sequence in this assay (P15170 whole entry): as the sequence (P15170 whole entry, looked up) above

[16] = tested on: MOLM-13; assay: Induction of apoptosis in human MOLM-13 cells assessed as viable cells at 0.1 uM incubated for 6 hrs by Annexin V-APC/7-AAD staining based flow cytometry (reference value: 97.12 %); assay type: functional; conditions: read-out: Activity
[17] = tested on: MOLM-13; assay: Induction of apoptosis in human MOLM-13 cells assessed as early apoptotic cells at 0.1 uM incubated for 6 hrs by Annexin V-APC/7-AAD staining based flow cytometry (reference value: 0.08 %); assay type: functional
[18] = tested on: MOLM-13; assay: Induction of apoptosis in human MOLM-13 cells assessed as late apoptotic cells at 0.1 uM incubated for 6 hrs by Annexin V-APC/7-AAD staining based flow cytometry (reference value: 0.01 %); assay type: functional
[19] = tested on: MOLM-13; assay: Induction of apoptosis in human MOLM-13 cells assessed as necrotic cells at 0.1 uM incubated for 6 hrs by Annexin V-APC/7-AAD staining based flow cytometry (reference value: 2.79 %); assay type: functional
[20] = tested on: MOLM-13; assay: Induction of apoptosis in human MOLM-13 cells assessed as viable cells at 0.1 uM incubated for 12 hrs by Annexin V-APC/7-AAD staining based flow cytometry (reference value: 97.12 %); assay type: functional; conditions: read-out: Activity
[21] = tested on: MOLM-13; assay: Induction of apoptosis in human MOLM-13 cells assessed as early apoptotic cells at 0.1 uM incubated for 12 hrs by Annexin V-APC/7-AAD staining based flow cytometry (reference value: 0.08 %); assay type: functional
[22] = tested on: MOLM-13; assay: Induction of apoptosis in human MOLM-13 cells assessed as late apoptotic cells at 0.1 uM incubated for 12 hrs by Annexin V-APC/7-AAD staining based flow cytometry (reference value: 0.01 %); assay type: functional
[23] = tested on: MOLM-13; assay: Induction of apoptosis in human MOLM-13 cells assessed as necrotic cells at 0.1 uM incubated for 12 hrs by Annexin V-APC/7-AAD staining based flow cytometry (reference value: 2.79 %); assay type: functional
[24] = tested on: MOLM-13; assay: Induction of apoptosis in human MOLM-13 cells assessed as viable cells at 0.1 uM incubated for 24 hrs by Annexin V-APC/7-AAD staining based flow cytometry (reference value: 97.12 %); assay type: functional; conditions: read-out: Activity
[25] = tested on: MOLM-13; assay: Induction of apoptosis in human MOLM-13 cells assessed as early apoptotic cells at 0.1 uM incubated for 24 hrs by Annexin V-APC/7-AAD staining based flow cytometry (reference value: 0.08 %); assay type: functional
[26] = tested on: MOLM-13; assay: Induction of apoptosis in human MOLM-13 cells assessed as late apoptotic cells at 0.1 uM incubated for 24 hrs by Annexin V-APC/7-AAD staining based flow cytometry (reference value: 0.01 %); assay type: functional
[27] = tested on: MOLM-13; assay: Induction of apoptosis in human MOLM-13 cells assessed as necrotic cells at 0.1 uM incubated for 24 hrs by Annexin V-APC/7-AAD staining based flow cytometry (reference value: 2.79 %); assay type: functional
[28] = tested on: MOLM-13; assay: Induction of cell cycle arrest in human MOLM-13 cells assessed as accumulation at G1 phase at 0.1 uM incubated for 6 to 12 hrs by PI staining based flow cytometry; assay type: functional; conditions: time 6-12 hrs
[29] = Cytotoxicity in human PBMC cells at 62.5 to 1000 nM; assay type: toxicity, cell-based; conditions: 1 µM, dose 62.5-1000 nM
[30] = Toxicity in IL2Rg-null NSG mouse xenografted with human MOLM-13 cells expressing GFP-Fluc assessed as body weight change at 2.5 mg/kg, ip bid treated for 18 days; assay type: organism-based; conditions: in vivo, 432 h, time 18 day
[31] = Toxicity in IL2Rg-null NSG mouse xenografted with human MOLM-13 cells expressing GFP-Fluc assessed as drug tolerance at 2.5 mg/kg, ip bid treated for 18 days; assay type: organism-based; conditions: in vivo, 432 h, time 18 day
[32] = tested on: MOLM-13; assay: Antitumor activity against human MOLM-13 cells expressing GFP-Fluc xenografted in IL2Rg-null NSG mouse assessed as reduction in leukemia burden at 2.5 mg/kg, ip bid treated for 21 days by bioluminescence imaging based analysis; assay type: functional, organism-based; conditions: time 21.0 day
[33] = tested on: MOLM-13; assay: Antitumor activity against human MOLM-13 cells expressing GFP-Fluc xenografted in IL2Rg-null NSG mouse assessed as reduction in spleen weight at 2.5 mg/kg, ip bid treated for 21 days; assay type: functional, organism-based; conditions: time 21.0 day
[34] = tested on: MOLM-13; assay: Antitumor activity against human MOLM-13 cells expressing GFP-Fluc xenografted in IL2Rg-null NSG mouse assessed as reduction in GFP-positive leukemic cells in peripheral blood at 2.5 mg/kg, ip bid treated for 21 days by flow cytometry; assay type: functional, organism-based; conditions: time 21.0 day
[35] = tested on: MOLM-13; assay: Antitumor activity against human MOLM-13 cells expressing GFP-Fluc xenografted in IL2Rg-null NSG mouse assessed as reduction in GFP-positive leukemic cells in spleen at 2.5 mg/kg, ip bid treated for 21 days by flow cytometry; assay type: functional, organism-based; conditions: time 21.0 day
[36] = tested on: MOLM-13; assay: Antitumor activity against human MOLM-13 cells expressing GFP-Fluc xenografted in IL2Rg-null NSG mouse assessed as reduction in GFP-positive leukemic cells in bone marrow at 2.5 mg/kg, ip bid treated for 21 days by flow cytometry; assay type: functional, organism-based; conditions: time 21.0 day
[37] = tested on: MOLM-13; assay: Antitumor activity against human MOLM-13 cells expressing GFP-Fluc xenografted in IL2Rg-null NSG mouse assessed as prolongation of median survival time at 2.5 mg/kg, ip bid treated for 21 days; assay type: functional, organism-based; conditions: time 21.0 day

In the case of `Cc1sc2c(c1C)C(c1ccc(Cl)cc1)=N[C@@H](CC(=O)N1CCN(CC3CCN(c4ccc5c(c4)C(=O)N(C4CCC(=O)NC4=O)C5=O)CC3)CC1)c1nnc(C)n1-2` (some centres not stated), the IC50 [1] is reported as 2.69 nM, the IC50 [2] is reported as 8.55 nM and the IC50 [3] is reported as 8.19 nM. It also gave an IC50 [4] of 14.4 nM, an IC50 [5] of 18 nM and an IC50 [6] of 10.1 nM. It also gave an IC50 [7] of 25.5 nM, a viability at 0.1 µM [8] of 7.02% and an IC50 [9] of 6.29 nM. For the same compound, the IC50 [10] was 8.92 nM, the Activity [11] was “Active” and the Activity [12] was “Active”. For the same compound, the Activity [13] was “Active”, the DC50 [14] was 0.48 nM and the DC50 [15] was 5.25 nM. The viability at 0.1 µM [16] was 78.7%, the Activity [17] was 20.64% and the Activity [18] was 0.3%. The Activity [19] was 0.36%, the viability at 0.1 µM [20] was 57.8% and the Activity [21] was 39.9%. The Activity [22] was 2.01%, the Activity [23] was 0.26% and the viability at 0.1 µM [24] was 10.2%. It also gave an Activity [25] of 67.5%, an Activity [26] of 21.1% and an Activity [27] of 1.18%. The Activity [28] was “Active”, the Activity [29] was “Non-toxic” and the Activity [30] was “Non-toxic”. The Activity [31] was “Non-toxic”, the Activity [32] was “Active” and the Activity [33] was “Active; Compound Activity Consistent With Decreased Leukemic Infiltration”. The Activity [34] was “Active”, the Activity [35] was “Active” and the Activity [36] was “Active”. The Activity [37] was “Active”.

From ChEMBL document CHEMBL6109072, “Discovery of highly potent dual GSPT1/BRD4 degraders with anti-AML activity” (Eur J Med Chem, 2025)
